According to patent US7642283B2, “Mitochrondrial permeability transition pore affinity labels and modulators” (Hoffmann-La Roche Inc., priority 2003, dated 2010):

How the values were obtained:
MPTP [1] = system: T1, MPTP; test: Ca2+-induced swelling in deenergized liver mitochondria; assay type: biochemical; conditions: n=2; 30 min after addition of 200 μM Ca2+; read-out: EC50 of MPTP inhibition in deenergized mitochondria
T1 construct: other: n=2; 30 min after addition of 200 μM Ca2+

MPTP [2] = target: T2, MPTP (Rattus norvegicus, UniProt Q9Z2L0); test: Ca2+-induced depolarisation (membrane potential, Rhodamine-123) of rat brain mitochondria; assay type: biochemical
T2 construct: other: n=2; glutamate/malate; other: glutamate/malate; 20 min; mean±SEM; unit not given; other: 300 nM; relieved by 50 μM Ub5

Cyp-D = Cyp-D (Homo sapiens, UniProt P30405); test: Cyp-D peptidyl prolyl cis-trans isomerase enzymatic activity; assay type: biochemical; conditions: at concentrations completely blocking MPTP
VDAC1 = target: T3, VDAC1 (Rattus norvegicus, UniProt Q9Z2L0); test: Affinity labeling of rat mitochondria with the tritiated spiro compound, SDS-PAGE and fluorography; assay type: binding; conditions: rat brain and liver mitochondria; 10 nM radiolabel; increasing concentration
T3 construct: from tissue; host or cells: Percoll-purified rat brain and liver mitochondria
Description: FIG. 6: Affinity-labeling of isolated rat brain (A) and liver (B) mitochondria. Mitochondrial preparations were incubated in the presence of 10 nM Spiro[cyclopentane-1,5′-[5H]dibenzo[a,d]cyclohepten]-2-one,10′,11′-t2-10′,11′-dihydro-3-methylene- for 15 min at 25° C. in presence or absence of various concentrations of Spiro[cyclopentane-1,5′-[5H]dibenzo[a,d]cyclohepten]-2-one,10′,11′-dihydro-3-methylene-(unlabeled). Samples were submitted to SDS-PAGE (see Experimental Procedures section for details) and fluorography. The fluorograms of the gels are shown. The molecular mass scale (kDa) is shown in the ordinate.
(§1) FIG. 8: (A) Effect of monobromobimano (MBBM) and phenylarsino oxide (PhAO) on VDAC1 labeling by Spiro[cyclopentane-1,5′-[5H]dibenzo[a,d]cyclohepten]-2-one,10′,11′-t2-10′,11′-dihydro-3-methylene- in rat brain mitochondria. Experimental conditions were as in the legend to FIG. 5. (B) Effect of various MPTP inhibitors, atractyloside (ATR) and DIDS on VDAC1 labeling by Spiro[cyclopentane-1,5′-[5H]dibenzo[a,d]cyclohepten]-2-one,10′,11′-t2-10′,11′-dihydro-3-methylene- in rat brain mitochondria. Mitochondria were exposed to DIDS for 5 min before rinsing for removal of the free agent and labeling with Spiro[cyclopentane-1,5′-[5H]dibenzo[a,d]cyclohepten]-2-one,10′,11′-t2-10′,11′-dihydro-3-methylene.
Percoll purified mitochondria (˜30 μg protein per sample) were incubated in the presence of 10 nM Spiro[cyclopentane-1,5′-[5H]dibenzo[a,d]cyclohepten]-2-one,10′,11′-t2-10′,11′-dihydro-3-methylene- in a final volume of 200 μl. After incubation for 15 min at 25° C., samples were centrifuged at 25000×g and the mitochondrial pellet rinsed twice with buffer. Samples were then solubilized in sample buffer containing β-mercaptoethanol (1 h at 37° C.) and subjected to SDS-polyacrylamide gel-electrophoresis (SDS-PAGE) on Tris-glycine Novex pre-cast mini-gels (12% monomer concentration, Invitrogen BV, The Netherlands). After Coomassie Blue staining, gels were processed for fluorography by soaking in Amplify™ (Amersham Biosciences), drying and exposing to X-ray BioMax MS film with BioMax MS intensifying screen (Kodak) at −80° C. for the appropriate time.
as §1, with “Effect” for “FIG. 8: (A) Effect”, “monobromobimano” for “monobromobimano (MBBM)”, “oxide” for “oxide (PhAO)”, “Example 12 (FIG. 8A).” for “the legend to FIG. 5. (B)”, “Spiro[cyclopentane-1,5′-[5H]dibenzo[a,d]cyclohepten]-2-one,10′,11′-t2-10′,11′-dihydro-3-methylene (FIG. 8B).” for “Spiro[cyclopentane-1,5′-[5H]dibenzo[a,d]cyclohepten]-2-one,10′,11′-t2-10′,11′-dihydro-3-methylene.”

MPTP [3] = target: T2, MPTP; test: Ca2+-retention capacity of rat brain mitochondria (Calcium Green-5N); assay type: biochemical; conditions: 1 μM compound; 5 μM Ca2+ pulses; mean±SEM of 3; control 530±70
Description: FIG. 4: (A) Effect of Spiro[cyclopentane-1,5′-[5H]dibenzo[a,d]cyclohepten]-2-one,10′,11′-dihydro-3-methylene- and CsA on Ca^2+-retention capacity of rat brain mitochondria. The incubation medium contained 0.2 M sucrose, 10 mM Tris-Mops, pH 7.4, 1 mM Pi-Tris, 5 μM EGTA and 5 mM glutamate/2.5 mM malate, buffered to pH 7.4 with Tris, containing 0.01% (w/v) bovine serum albumin and 1 μM Calcium Green-5N. The final volume was 2.5 ml. Trace (a) control, (b) 1 μM CsA, (c) 1 μM Spiro[cyclopentane-1,5′-[5H]dibenzo[a,d]cyclohepten]-2-one,10′,11′-dihydro-3-methylene- and (d) 1 μM CsA plus 1 μM Spiro[cyclopentane-1,5′-[5H]dibenzo[a,d]cyclohepten]-2-one,10′,11′-dihydro-3-methylene-. Each fluorescence spike corresponds to addition of 5 μM Ca^2+. (B) Comparison of Ca^2+-retention capacity in liver (a) and brain mitochondria (b).
Effect of Spiro[cyclopentane-1,5′-[5H]dibenzo[a,d]cyclohepten]-2-one,10′,11′-dihydro-3-methylene- and CsA on Ca^2+-retention capacity of rat brain mitochondria (FIG. 4). Measurement of extramitochondrial Ca^2+ was determined using a Perkin-Elmer LS-50B fluorimeter controlled by the FL WinLab computer program. […] The final volume was 2.5 ml and the cuvette was thermostated at 25° C. Brain mitochondria were then subjected to a train of 5 μM Ca^2+ additions (˜150 nmol mg protein^−1). Extramitochondrial Ca^2+ was monitored at excitation/emission wavelengths of 505-535. […] The Ca^2+-retention capacity in liver (a) and brain mitochondria (b) were also compared (FIG. 4B).
The effect of Spiro[cyclopentane-1,5′-[5H]dibenzo[a,d]cyclohepten]-2-one,10′,11′-dihydro-3-methylene- at inhibiting MPTP was also investigated in mitochondria isolated from rat forebrain. […] Due to the difficulties mentioned above, the effect of Spiro[cyclopentane-1,5′-[5H]dibenzo[a,d]cyclohepten]-2-one,10′,11′-dihydro-3-methylene- on MPTP in brain mitochondria was more accurately investigated by subjecting mitochondria isolated from rat forebrain to a series of Ca^2+ pulses (5 μM, ˜150 nmol mg protein^−1) and by monitoring extramitochondrial Ca^2+ or using fluororescent probes.

T2 sequence (Q9Z2L0 2-283): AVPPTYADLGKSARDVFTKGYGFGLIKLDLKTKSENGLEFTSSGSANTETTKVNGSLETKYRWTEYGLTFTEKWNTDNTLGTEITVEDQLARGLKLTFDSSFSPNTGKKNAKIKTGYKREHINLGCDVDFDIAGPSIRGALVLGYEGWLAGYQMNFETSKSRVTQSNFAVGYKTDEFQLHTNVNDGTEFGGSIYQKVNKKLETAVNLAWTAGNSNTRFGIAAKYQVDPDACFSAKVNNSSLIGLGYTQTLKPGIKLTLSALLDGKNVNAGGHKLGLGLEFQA
Chain of Cyp-D (P30405 30-207): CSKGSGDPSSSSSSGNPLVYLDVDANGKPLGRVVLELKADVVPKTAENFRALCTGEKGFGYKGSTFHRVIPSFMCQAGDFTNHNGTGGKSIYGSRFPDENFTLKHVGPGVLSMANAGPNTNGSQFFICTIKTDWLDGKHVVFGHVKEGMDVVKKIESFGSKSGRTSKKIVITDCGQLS
T3 sequence (Q9Z2L0 whole entry): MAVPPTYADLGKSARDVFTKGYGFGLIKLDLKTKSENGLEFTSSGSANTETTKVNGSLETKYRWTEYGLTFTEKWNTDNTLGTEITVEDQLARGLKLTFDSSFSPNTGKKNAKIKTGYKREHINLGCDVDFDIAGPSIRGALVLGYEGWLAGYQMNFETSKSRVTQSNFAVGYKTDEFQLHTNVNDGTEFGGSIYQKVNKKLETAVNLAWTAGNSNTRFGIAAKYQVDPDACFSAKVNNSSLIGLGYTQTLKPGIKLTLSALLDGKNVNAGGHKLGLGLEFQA

Compound: C=C1CCC2(C1=O)c1ccccc1CCc1ccccc12 [Spiro[cyclopentane-1,5′-[5H]dibenzo[a,d]cyclohepten]-2-one,10′,11′-dihydro-3-methylene-]
- EC50 (MPTP [1]): 370 nM
- Inhibition of Ca2+-induced depolarisation (MPTP [2]; 300 nM, 20 μM Ca2+, relieved by 50 μM Ub5): inhibited
- Number of Ca2+ additions necessary to induce complete depolarization (MPTP [2]; series of 5 μM Ca2+ additions, membrane potential monitored): increased
- Inhibition of Cyp-D peptidyl prolyl cis-trans isomerase activity (Cyp-D): did not inhibit
- Effect of unlabeled compound on labeling of the ~32 kDa band (VDAC1): inhibited
- Ca2+-buffering capacity (MPTP [3]): 1200±120 nmol Ca^2+ mg protein^−1
